Laboratory results as given in ChEMBL document CHEMBL5579852, “Promising anti-proliferative indolic benzenesulfonamides alter mechanisms with sulfonamide nitrogen substituents” (Eur J Med Chem, 2024).
The source made the active and inactive calls. The rule behind the calls is not given here.

How the values were obtained:
[1] = Antiproliferative activity against human HEK293 cells assessed as reduction in cell viability incubated for 72 hrs by CelltiterGlo luminescent assay; assay type: toxicity, cell-based
[2] = tested on: MES-SA; assay: Cell cycle distribution in human MES-SA cells assessed as accumulation of cells in G2 phase cells at 100 nM incubated for 24 hrs by Hoechst 33258 staining based flow cytometry (reference value: 12 %); assay type: functional
[3] = tested on: MES-SA; assay: Cell cycle distribution in human MES-SA cells assessed as accumulation of cells in G1 phase cells at 100 nM incubated for 24 hrs by Hoechst 33258 staining based flow cytometry (reference value: 60%); assay type: functional
[4] = tested on: BT-474; assay: Antiproliferative activity against human BT-474 cells assessed as reduction in cell viability incubated for 72 hrs by CelltiterGlo luminescent assay; conditions: BT-474, 72 h
[5] = tested on: MES-SA; assay: Cell cycle distribution in human MES-SA cells assessed as accumulation of cells in S phase cells at 100 nM incubated for 24 hrs by Hoechst 33258 staining based flow cytometry (reference value: 27 %); assay type: functional
[6] = tested on: A-375; assay: Antiproliferative activity against human A-375 cells assessed as reduction in cell viability incubated for 72 hrs by CelltiterGlo luminescent assay; conditions: A-375, 72 h
[7] = tested on: HeLa; assay: Antiproliferative activity against human HeLa cells assessed as reduction in cell viability incubated for 72 hrs by CelltiterGlo luminescent assay; assay type: functional, cell-based
[8] = tested on: MES-SA; assay: Induction of apoptosis in human MES-SA cells assessed as late apoptotic cells at 100 nM incubated for 24 hrs by live/dead orange and TUNEL staining based flow cytometry analysis relative to control; assay type: functional
[9] = tested on: MES-SA; assay: Cell cycle distribution in human MES-SA cells assessed as accumulation of cells in M phase cells at 100 nM incubated for 24 hrs by Hoechst 33258 staining based flow cytometry (reference value: 1.3 %); assay type: functional
[10] = tested on: HeLa; assay: Antiproliferative activity against human HeLa cells assessed as inhibition of cell growth incubated for 72 hrs in presence of verapamil by MTT assay; assay type: functional, cell-based
[11] = Antiproliferative activity against human Melmet 5 cells assessed as reduction in cell viability incubated for 72 hrs by CelltiterGlo luminescent assay; conditions: Melmet 5, 72 h
[12] = tested on: MES-SA; assay: Induction of apoptosis in human MES-SA cells assessed as dead cells at 100 nM incubated for 24 hrs by live/dead orange and TUNEL staining based flow cytometry analysis relative to control; assay type: functional
[13] = tested on: HeLa; assay: Antiproliferative activity against human HeLa cells assessed as reduction in cell viability incubated for 72 hrs by MTT assay; assay type: functional, cell-based
[14] = tested on: MES-SA; assay: Induction of apoptosis in human MES-SA cells assessed as increase in caspase 3/7 activation at 100 nM by live-cell imaging based fluorescence assay; assay type: functional; conditions: time 3.0 day, TDE = time-dependent effect
[15] = tested on: HeLa; assay: Antiproliferative activity against human HeLa cells assessed as inhibition of cell growth incubated for 72 hrs in absence of verapamil by MTT assay; assay type: functional, cell-based
[16] = molecular target: Tubulin (Homo sapiens) (UniProt P68371+Q9H4B7+P0DPH7+P68366+Q13509+Q71U36+P04350+Q3ZCM7+P07437+P68363+Q9BQE3+Q6PEY2+Q13885+Q9BVA1+Q9BUF5); assay: Inhibition of tubulin polymerization in human MES-SA cells assessed as appearance of spherical shaped cells at 10 nM incubated for 24 hrs by DAPI staining based confocal microscopy analysis; assay type: cell-based
[17] = tested on: MES-SA; assay: Antiproliferative activity against human MES-SA cells assessed as reduction in cell viability incubated for 72 hrs by CelltiterGlo luminescent assay
[18] = tested on: MES-SA; assay: Induction of apoptosis in human MES-SA cells assessed as apoptotic cells at 100 nM incubated for 24 hrs by live/dead orange and TUNEL staining based flow cytometry analysis relative to control; assay type: functional
[19] = tested on: MCF7; assay: Antiproliferative activity against human MCF7 cells assessed as reduction in cell viability incubated for 72 hrs by CelltiterGlo luminescent assay; assay type: functional, cell-based; conditions: MCF7, 72 h
[20] = tested on: HT-1080; assay: Antiproliferative activity against human HT-1080 cells assessed as reduction in cell viability incubated for 72 hrs by CelltiterGlo luminescent assay; conditions: HT-1080, 72 h
[21] = tested on: MDA-MB-468; assay: cells; conditions: Homo sapiens, MDA-MB-468, 72 h
Description: Antiproliferative activity against human MDA-MB-468 cells assessed as reduction in cell viability incubated for 72 hrs by CelltiterGlo luminescent assay

[22] = Antiproliferative activity against human WM1366 cells assessed as reduction in cell viability incubated for 72 hrs by CelltiterGlo luminescent assay; conditions: WM1366, 72 h
[23] = tested on: MES-SA; assay: Induction of apoptosis in human MES-SA cells assessed as live cells at 100 nM incubated for 24 hrs by live/dead orange and TUNEL staining based flow cytometry analysis relative to control; assay type: functional
[24] = Antiproliferative activity against human Hermes 3C cells assessed as reduction in cell viability incubated for 72 hrs by CelltiterGlo luminescent assay; assay type: toxicity, cell-based
[25] = Antiproliferative activity against human RPE-1 cells assessed as reduction in cell viability incubated for 72 hrs by CelltiterGlo luminescent assay; assay type: toxicity, cell-based; conditions: RPE-1 cells (TERT-RPE1)
[26] = cells; conditions: Homo sapiens, MDA-MB-468, 72 h
[27] = tested on: CAKI-1; assay: Antiproliferative activity against human CAKI-1 cells assessed as reduction in cell viability incubated for 72 hrs by CelltiterGlo luminescent assay; conditions: CAKI-1, 72 h
[28] = tested on: MES-SA; assay: Cell cycle distribution in human MES-SA cells assessed as accumulation of cells in G2/M phase cells at 100 nM incubated for 24 hrs by Hoechst 33258 staining based flow cytometry (reference value: 13.3 %); assay type: functional
[29] = tested on: MES-SA; assay: Induction of apoptosis in human MES-SA cells assessed as necrotic cells at 100 nM incubated for 24 hrs by live/dead orange and TUNEL staining based flow cytometry analysis relative to control; assay type: functional
[30] = tested on: CAKI-1; assay: Antiproliferative activity against human CAKI-1 cells assessed as reduction in cell viability incubated for 72 hrs by CelltiterGlo luminescent assay
[31] = tested on: MES-SA; assay: Induction of apoptosis in human MES-SA cells assessed as caspase 3/7 activation at 1 uM incubated for 48 to 72 hrs by live-cell imaging based fluorescence assay; assay type: functional; conditions: time lower […], time upper 72.0 hrs
[32] = tested on: MES-SA; assay: Induction of apoptosis in human MES-SA cells assessed as caspase 3/7 activation at 1 uM incubated for 24 hrs by live-cell imaging based fluorescence assay; assay type: functional

## COc1cc(S(=O)(=O)N(CC#N)c2ccc3c(ccn3C)c2)cc(OC)c1OC
[1]
  IC50 at 72 h: 23.4 nM
[2]
  Activity: 35%
[3]
  Activity: 4%
[4]
  IC50: 68.3 nM
[5]
  Activity: 6%
[6]
  IC50: 22.1 nM
[7]
  IC50: 11 nM
[8]
  Activity: 0.5%
[9]
  Activity: 48.6%
[10]
  IC50: 16.3 nM
[11]
  IC50: 8.9 nM
[12]
  Activity: 8%
[13]
  IC50: 1.7 nM
[14]
  Activity: Tde
[15]
  IC50: 22.3 nM
[16]
  inhibition: inactive
[17]
  IC50: 8.9 nM
[18]
  Activity: 3.1%
[19]
  IC50: 13.7 nM
[20]
  IC50: 9.9 nM
[21]
  IC50: 13 nM
[22]
  IC50: 52.8 nM
[23]
  Activity: 92%
[24]
  IC50 at 72 h: 44.7 nM
[25]
  IC50 at 72 h: 80.4 nM
[26]
  IC50: 14.8 nM
[27]
  IC50: 56.2 nM
[28]
  Activity: 83.6%
[29]
  Activity: 4.5%

## COc1cc(S(=O)(=O)Nc2ccc3c(c2)c(C#N)cn3C)cc(OC)c1OC
[1]
  IC50 at 72 h: 18.2 nM
[2]
  Activity: 22%
[3]
  Activity: 4%
[4]
  IC50: 57.5 nM
[5]
  Activity: 6%
[6]
  IC50: 33.2 nM
[7]
  IC50: 13.3 nM
[8]
  Activity: 1.8%
[9]
  Activity: 67.7%
[10]
  IC50: 29.1 nM
[11]
  IC50: 1.6 nM
[12]
  Activity: 12%
[13]
  IC50: 43 nM
[14]
  Activity: Tde
[15]
  IC50: 43 nM
[16]
  inhibition: inactive
[17]
  IC50: 11.8 nM
[18]
  Activity: 5.8%
[19]
  IC50: 12.1 nM
[20]
  IC50: 12.1 nM
[21]
  IC50: 11.8 nM
[22]
  IC50: 65.7 nM
[23]
  Activity: 88%
[24]
  IC50 at 72 h: 87.1 nM
[25]
  IC50 at 72 h: 52.8 nM
[26]
  IC50: 12.4 nM
[27]
  IC50: 32.4 nM
[28]
  Activity: 83.6%
[29]
  Activity: 4.5%

## COc1cc(S(=O)(=O)N(C)c2ccc3c(c2)c(C#N)cn3C)cc(OC)c1OC
[1]
  IC50 at 72 h: 29 nM
[2]
  Activity: 10%
[3]
  Activity: 4%
[4]
  IC50: 16.3 nM
[5]
  Activity: 6%
[6]
  IC50: 11.7 nM
[7]
  IC50: 16 nM
[8]
  Activity: 1.3%
[9]
  Activity: 75.3%
[30]
  Activity: inactive
[10]
  IC50: 24.6 nM
[11]
  IC50: 10.6 nM
[13]
  IC50: 8 nM
[14]
  Activity: Tde
[15]
  IC50: 25.7 nM
[16]
  inhibition: Active
[17]
  IC50: 6.3 nM
[18]
  Activity: 5%
[19]
  IC50: 12.3 nM
[20]
  IC50: 15.3 nM
[21]
  IC50: 28 nM
[22]
  IC50: 20.2 nM
[23]
  Activity: 91.4%
[24]
  IC50 at 72 h: 45.6 nM
[25]
  IC50 at 72 h: 13.2 nM
[26]
  IC50: 69.5 nM
[28]
  Activity: 83.6%
[29]
  Activity: 2.3%

## CN[C@@H]1C[C@H]2O[C@@](C)([C@@H]1OC)n1c3ccccc3c3c4c(c5c6ccccc6n2c5c31)C(=O)NC4
[31]
  Activity: inactive
[32]
  Activity: Active

## COc1cc(S(=O)(=O)N(C)c2ccc3c(ccn3C)c2)cc(OC)c1OC
[1]
  IC50 at 72 h: 12.3 nM
[2]
  Activity: 10%
[3]
  Activity: 4%
[4]
  IC50: 34.5 nM
[5]
  Activity: 6%
[6]
  IC50: 17.5 nM
[7]
  IC50: 14.5 nM
[8]
  Activity: 0.9%
[9]
  Activity: 75.3%
[10]
  IC50: 40.9 nM
[11]
  IC50: 12.9 nM
[13]
  IC50: 3.2 nM
[14]
  Activity: Tde
[15]
  IC50: 50.1 nM
[16]
  inhibition: Active
[17]
  IC50: 9 nM
[18]
  Activity: 5.7%
[19]
  IC50: 15.8 nM
[20]
  IC50: 11.8 nM
[21]
  IC50: 24.4 nM
[22]
  IC50: 13.5 nM
[23]
  Activity: 90%
[24]
  IC50 at 72 h: 67.4 nM
[25]
  IC50 at 72 h: 20 nM
[26]
  IC50: 67.6 nM
[27]
  IC50: 11 nM
[28]
  Activity: 83.6%
[29]
  Activity: 3.4%
